This test concerns P388 leukemia ip, CD2F1 mice, survival T/C. As to the kind of experiment: NCI In Vivo Anticancer Drug Screen. Data for tumor model P388 Leukemia (intraperitoneal) in CD2F1 (CDF1) mice. Particulars: endpoint: median survival time, higher = longer survival. A digest of the protocol: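 Mice carrying the transplanted tumor received test compound or vehicle. Survival was recorded in each group, and the value is the treated-group measurement divided by that of the vehicle-treated control group.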

[1] abbreviates: dose: 7.5 mg/kg/injection, schedule: Q01DX005 (ip), vehicle: saline with Tween-80.
Where [2] appears, read: dose: 15.0 mg/kg/injection, schedule: Q01DX005 (ip), vehicle: saline with Tween-80.
The mark [3] stands for this setting: dose: 30.0 mg/kg/injection, schedule: Q01DX005 (ip), vehicle: saline with Tween-80.
[4] abbreviates: dose: 240.0 mg/kg/injection, schedule: Q01DX005 (ip), vehicle: saline with Tween-80.
[5] abbreviates: dose: 25.0 mg/kg/injection, schedule: Q01DX009 (ip), vehicle: Klucel (hydroxypropylcellulose) (HPC).
The mark [6] stands for this setting: dose: 50.0 mg/kg/injection, schedule: Q01DX009 (ip), vehicle: Klucel (hydroxypropylcellulose) (HPC).
[7] abbreviates: dose: 100.0 mg/kg/injection, schedule: Q01DX009 (ip), vehicle: Klucel (hydroxypropylcellulose) (HPC).
Setting [8] is: dose: 50.0 mg/kg/injection, schedule: Q01DX009 (ip), vehicle: saline.
Where [9] appears, read: dose: 100.0 mg/kg/injection, schedule: Q01DX009 (ip), vehicle: saline.
[10] abbreviates: dose: 200.0 mg/kg/injection, schedule: Q01DX009 (ip), vehicle: saline.
Where [11] appears, read: dose: 6.25 mg/kg/injection, schedule: Q01DX009 (ip), vehicle: saline with Tween-80.
Setting [12] is: dose: 12.5 mg/kg/injection, schedule: Q04DX003 (ip), vehicle: saline.
The mark [13] stands for this setting: dose: 25.0 mg/kg/injection, schedule: Q04DX003 (ip), vehicle: saline.
The mark [14] stands for this setting: dose: 60.0 mg/kg/injection, schedule: Q01DX005 (ip), vehicle: saline with Tween-80.
Setting [15] is: dose: 120.0 mg/kg/injection, schedule: Q01DX005 (ip), vehicle: saline with Tween-80.

The structures appear in SMILES notation. Toxic doses and inconclusive results are not listed.

Take `CN=C(N)c1ccc(N=C(N)c2ccc(C(N)=Nc3ccc(C(N)=NC)cc3)cc2)cc1`: the T/C is 100 % of control (dose: 1.3 mg/kg/injection, schedule: Q01DX005 (iv), vehicle: saline); 100 % of control (dose: 5.0 mg/kg/injection, schedule: Q04DX003 (ip), vehicle: saline); 92 % of control (dose: 6.48 mg/kg/injection, schedule: Q04DX002 (ip), vehicle: saline); 100 % of control (dose: 10.0 mg/kg/injection, schedule: Q04DX003 (ip), vehicle: saline); 120 % of control (dose: 10.8 mg/kg/injection, schedule: Q01DX005 (ip), vehicle: water); 172 % of control (dose: 20.0 mg/kg/injection, schedule: Q01DX009 (ip), vehicle: saline). For the same compound, the T/C (dose: 30.0 mg/kg/injection, schedule: Q01DX005 (ip), vehicle: saline) is 163 % of control.

Regarding `CCC/C(C)=N/NC(=S)SC`, the T/C (dose: 6.25 mg/kg/injection, schedule: Q01DX009 (ip), vehicle: saline) is 100 % of control; the T/C (dose: 12.5 mg/kg/injection, schedule: Q01DX009 (ip), vehicle: saline) was 98 % of control; the T/C (dose: 25.0 mg/kg/injection, schedule: Q01DX009 (ip), vehicle: saline) was 98 % of control.

As to `O=C(/C=C/c1c(-c2ccccc2)[nH]c2ccccc12)c1ccccc1O`, the T/C is 106 % of control under setting [1], 92 % of control under setting [2], 90 % of control under setting [3] and 88 % of control under setting [4].

Consider `O=c1[nH]c(C(Br)(Br)Br)nc2ccccc12`, for which the T/C is, setting by setting: (dose: 12.5 mg/kg/injection, schedule: Q01DX009 (ip), vehicle: Klucel (hydroxypropylcellulose) (HPC)) 99 % of control; under setting [5], 112 % of control; under setting [6], 113 % of control; under setting [7], 117 % of control.

Take `COC(=O)C1NC(C(O)C(O)C(O)C(O)CO)SC1(C)C` (configuration not stated): the T/C under setting [8] was 94 % of control, the T/C under setting [9] is 102 % of control and the T/C under setting [10] was 100 % of control.

Consider `NC1(c2ccccc2)C2CC3CC(C2)CC1C3` (configuration not stated), for which the T/C (dose: 25.0 mg/kg/injection, schedule: Q04DX003 (ip), vehicle: Klucel (hydroxypropylcellulose) (HPC)) is 101 % of control; the T/C (dose: 50.0 mg/kg/injection, schedule: Q04DX003 (ip), vehicle: Klucel (hydroxypropylcellulose) (HPC)) was 102 % of control; the T/C (dose: 100.0 mg/kg/injection, schedule: Q04DX003 (ip), vehicle: Klucel (hydroxypropylcellulose) (HPC)) is 109 % of control.

`C1=C\CCCCCCCC/1`: the T/C is 100 % of control (dose: 1.56 mg/kg/injection, schedule: Q01DX009 (ip), vehicle: saline with Tween-80); 91 % of control (dose: 3.13 mg/kg/injection, schedule: Q01DX009 (ip), vehicle: saline with Tween-80); 100 % of control under setting [11]; 109 % of control (dose: 6.25 mg/kg/injection, schedule: Q04DX003 (ip), vehicle: saline); 100 % of control under setting [12]; 104 % of control under setting [13].

In the case of `O=C1C(Br)=C(Br)C(=O)C1(Br)Br`, the T/C was 118 % of control under setting [11]; 100 % of control (dose: 6.25 mg/kg/injection, schedule: Q04DX003 (ip), vehicle: saline with Tween-80); 100 % of control (dose: 12.5 mg/kg/injection, schedule: Q04DX003 (ip), vehicle: saline with Tween-80); 120 % of control (dose: 25.0 mg/kg/injection, schedule: Q04DX003 (ip), vehicle: saline with Tween-80).

On to `NC(=O)C(N)CCCC1NC(=S)N(c2ccccc2)C1=O` (configuration not stated), for which the T/C was 92 % of control (dose: 60.0 mg/kg/injection, schedule: Q01DX005 (ip), vehicle: Klucel (hydroxypropylcellulose) (HPC)); 93 % of control (dose: 120.0 mg/kg/injection, schedule: Q01DX005 (ip), vehicle: Klucel (hydroxypropylcellulose) (HPC)); 86 % of control (dose: 240.0 mg/kg/injection, schedule: Q01DX005 (ip), vehicle: Klucel (hydroxypropylcellulose) (HPC)).

Take `CSC(=S)N/N=C/c1ccc[nH]1`: the T/C is, setting by setting: under setting [8], 100 % of control; under setting [9], 94 % of control.

In the case of `CC(C)=CBr`, the T/C reads like this: under setting [8], 105 % of control; under setting [9], 105 % of control; under setting [10], 110 % of control.

On to `COc1ccc(OC)c(NCCCN2C(=O)c3ccccc3C2=O)c1`, for which the T/C under setting [14] is 90 % of control and the T/C under setting [15] is 86 % of control.

As to `CCNC(=O)c1c(C)nc(-c2ccccc2)nc1Nc1ccc(OCC)cc1`, the T/C under setting [14] is 98 % of control, the T/C under setting [15] is 98 % of control and the T/C under setting [4] was 103 % of control.

As for `CC1=CC2N(C=C1)C(c1ccccc1)=NON2c1cc(C)ccn1` (configuration not stated), the T/C runs as follows: under setting [1], 91 % of control; under setting [2], 94 % of control; under setting [3], 91 % of control.

For `O=[N+]([O-])c1ccc(O)cc1C=NCCSc1ccc(Cl)cc1`, the T/C is, setting by setting: (dose: 50.0 mg/kg/injection, schedule: Q01DX009 (ip), vehicle: saline with Tween-80) 100 % of control; (dose: 100.0 mg/kg/injection, schedule: Q01DX009 (ip), vehicle: saline with Tween-80) 100 % of control; (dose: 200.0 mg/kg/injection, schedule: Q01DX009 (ip), vehicle: saline with Tween-80) 103 % of control.

For `O=C(Nc1ccccc1)c1cnc[nH]1`, the T/C was 99 % of control under setting [5]; 102 % of control under setting [6]; 102 % of control under setting [7]; 96 % of control (dose: 200.0 mg/kg/injection, schedule: Q01DX009 (ip), vehicle: Klucel (hydroxypropylcellulose) (HPC)).

With `COc1ccc(CCC#N)cc1OC`, the T/C was 104 % of control (dose: 25.0 mg/kg/injection, schedule: Q01DX009 (ip), vehicle: other); 105 % of control (dose: 50.0 mg/kg/injection, schedule: Q01DX009 (ip), vehicle: other); 100 % of control (dose: 100.0 mg/kg/injection, schedule: Q01DX009 (ip), vehicle: other); 110 % of control (dose: 200.0 mg/kg/injection, schedule: Q01DX009 (ip), vehicle: other).

In the case of `CCCn1c(Cl)c(C=O)c2ccccc21`, the T/C reads like this: (dose: 100.0 mg/kg/injection, schedule: Q01DX001 (ip), vehicle: Klucel (hydroxypropylcellulose) (HPC)) 104 % of control; (dose: 200.0 mg/kg/injection, schedule: Q01DX001 (ip), vehicle: Klucel (hydroxypropylcellulose) (HPC)) 98 % of control; (dose: 400.0 mg/kg/injection, schedule: Q01DX001 (ip), vehicle: Klucel (hydroxypropylcellulose) (HPC)) 97 % of control.

For `CSc1nc2cc(Cl)ccc2c2c1C=NCCN2`, the T/C under setting [12] was 97 % of control; the T/C under setting [13] was 96 % of control; the T/C (dose: 50.0 mg/kg/injection, schedule: Q04DX003 (ip), vehicle: saline) is 103 % of control; the T/C (dose: 50.0 mg/kg/injection, schedule: Q04DX003 (ip), vehicle: suspension in saline) is 103 % of control.

Regarding `COc1cc2c(cc1OC)[C@H]1O[C@H](OC)c3c(ccc4c3OCO4)[C@H]1N(C)CC2`, the T/C is 106 % of control (dose: 7.25 mg/kg/injection, schedule: Q01DX005 (ip), vehicle: Klucel (hydroxypropylcellulose) (HPC)); 100 % of control (dose: 14.5 mg/kg/injection, schedule: Q01DX005 (ip), vehicle: Klucel (hydroxypropylcellulose) (HPC)); 106 % of control (dose: 29.0 mg/kg/injection, schedule: Q01DX005 (ip), vehicle: Klucel (hydroxypropylcellulose) (HPC)); 96 % of control (dose: 58.0 mg/kg/injection, schedule: Q01DX005 (ip), vehicle: Klucel (hydroxypropylcellulose) (HPC)).

Consider `Cc1ccc2c3c(c(O)c(C(C)(C)O)cc13)OC2=O`, for which the T/C runs as follows: (dose: 15.63 mg/kg/injection, schedule: Q01DX005 (ip), vehicle: Klucel (hydroxypropylcellulose) (HPC)) 91 % of control; (dose: 31.25 mg/kg/injection, schedule: Q01DX005 (ip), vehicle: Klucel (hydroxypropylcellulose) (HPC)) 90 % of control; (dose: 62.5 mg/kg/injection, schedule: Q01DX005 (ip), vehicle: Klucel (hydroxypropylcellulose) (HPC)) 93 % of control; (dose: 125.0 mg/kg/injection, schedule: Q01DX005 (ip), vehicle: Klucel (hydroxypropylcellulose) (HPC)) 93 % of control; (dose: 250.0 mg/kg/injection, schedule: Q01DX005 (ip), vehicle: Klucel (hydroxypropylcellulose) (HPC)) 93 % of control.

These data come from PubChem BioAssay AID330 (DTP/NCI, 2004).
